Measurements: publication PMC7203124, “Structural Basis for PPARα Activation by 1H-pyrazolo-[3,4-b]pyridine Derivatives” (Scientific Reports, 2020)

Biological target: T1, PPARα (Homo sapiens, UniProt Q07869, I272F)
T1 construct: gene PPARA; hPPARα LBD
T1 sequence (Q07869 199-468 I272F limits assumed): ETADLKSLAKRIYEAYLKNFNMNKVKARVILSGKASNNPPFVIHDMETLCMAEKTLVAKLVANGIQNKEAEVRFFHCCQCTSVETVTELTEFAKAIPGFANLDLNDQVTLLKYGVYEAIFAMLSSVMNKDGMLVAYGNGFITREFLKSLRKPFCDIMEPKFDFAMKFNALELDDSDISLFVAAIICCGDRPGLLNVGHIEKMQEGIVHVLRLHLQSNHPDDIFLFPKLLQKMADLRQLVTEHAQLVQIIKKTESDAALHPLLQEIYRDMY
Test: transactivation reporter assay at […]
Format: cell-based

Question: For `CC(C)(Oc1ccc(C(=O)c2ccc(Cl)cc2)cc1)C(=O)O` [fenofibric acid], which “transactivation reporter assay at 10 μM” value is on record?
Answer: while fenofibric acid showed comparable activity between WT and Ile272Phe
